Read-outs that look alike come from different tables or passages of the source.

The subject of data set [1] is Primary rat cortical neurons. In words: Staurosporine (STS) injury assay, cell viability by CELLTITER-BLUE. Type of data set: cell-based. The method, then: Primary rat cortical neurons were cultured on poly-D-lysine coated 96-well plates at a density of 1×10^5/well in Neurobasal medium+B27 supplement. 1/2 media swaps were given every 3 d. ARA-c was added to the medium on day in vitro (DIV) 3 to inhibit glial proliferation. On DIV9, maintenance media (2/3) was collected from plates and mixed with fresh media (1/3) to obtain ˜67% conditioned medium (CM). Staurosporine (STS) and drugs were prepared in 100% DMSO and diluted in CM. Uninjured controls received an equal concentration of DMSO. Primary cortical neurons were incubated with +STS+drugs for in 100 μL/well CM. Cell viability was determined 24 h later (DIV10) by CELLTITER-BLUE® (n=10 replicates/group). […] Data were analyzed by 1-Way-ANOVA and Newman-Keuls Multiple Comparison Test. Graphs show Mean+SEM. Data are significant at p<0.05. Conclusion: NSC74429 is a potent a neuroprotectant as determined by the STS cell death assay.

For data set [2], the system named is pAKT473. The following applies: primary rat cortical neurons, Jackson et al., 2013; cited from earlier work.
The test system of data set [3] is Primary rat cortical neurons. Briefly: Glutamate-excitotoxicity assay, cell viability by CELLTITER-BLUE. Type of data set: cell-based. The following applies: 10 μM glutamic acid 5 min, viability 24 h later. The method, then: (§1) Primary rat cortical neurons were cultured on poly-D-lysine coated 96-well plates at a density of 1×10^5/well in Neurobasal medium+B27 supplement. 1/2 media swaps were given every 3 d. ARA-c was added to the maintenance medium on day in vitro (DIV) 3 to inhibit glial proliferation. (A) On DIV9, maintenance media (2/3) was collected from plates and mixed with fresh media (1/3) to obtain 67% conditioned medium (CM). Cells were washed once with balanced salt solution (BSS supplemented with 5 mM glucose; 200 μL/well). BSS was replaced with BSS containing 10 μM glutamic acid, and incubated on cells 5 min to induce excitotoxicity. Glutamic acid/BSS was replaced with 100 μL/well CM, containing DMSO (control) or drugs, and returned to the incubator for 24 h (n=10 replicates/group). (B) DIV9 cells were washed once with BSS, injured 35 min with 40 μM H2O2 dissolved in BSS, and replaced with 100 μL/well CM containing DMSO (control) or drugs. Cell viability was determined 24 h later (DIV10) by addition of 20 μL/well CELLTITER-BLUE® (n=10 replicates/group). Data were analyzed by 1-Way-ANOVA and Newman-Keuls Multiple Comparison Test. Graphs show Mean+SEM. Data are significant at p<0.05. Excitotoxicity is a major cause of neuronal death across the spectrum of CNS injury.

For data set [4], the system named is Primary rat cortical neurons. In words: Hydrogen peroxide (H2O2)-oxidative stress assay, cell viability by CELLTITER-BLUE. Type of data set: cell-based. The following applies: 40 μM H2O2 35 min, viability 24 h later. As for the experimental part:
as §1
In general terms: The colour change of resazurin is a common sign of viable cells or microbes.

Data set [5] deals with pAKT473. Briefly: pAKT473 levels in cultured primary rat cortical neurons (Western blots). The format is cell-based. The following applies: 25 μM or 50 μM, 35 min. As for the experimental part: We tested if NSC74429 also increases pAKT473 levels using our published protocol. In brief, uninjured primary rat cortical neurons were maintained in Neurobasal+B27. Prior to treatments, neurons were given a supplement starvation period by exchanging maintenance media with basic Neurobasal (i.e. minus B27), and returned to a 37° C. incubator for 2 h. Neurons were subsequently treated 35 min with DMSO, 25 μM NSC74429, or 50 μM NSC74429 (diluted in basic Neurobasal). Western blots confirm that PHLPP1 and PHLPP2 isoforms are detected in rat cortical neurons. […] PHLPP inhibitors increase pAKT473 levels but NSC74429 had the opposite effect. Moreover, inhibition of pAKT473 is expected to promote cell death yet NSC74429 (AKT inhibitor) was neuroprotective as shown in FIG. 1 and FIG. 2. […] Data were analyzed by 1-Way-ANOVA and Newman-Keuls Multiple Comparison Test. Graphs show Mean+SEM. Data are significant at p<0.05. Conclusion: Together PHLPP1 and PHLPP2 regulate the dephosphorylation of pAKT473 on AKT1, AKT2, and AKT3 isoforms.
On the technique in general: In western blotting, separated proteins are transferred to a membrane and probed.

Another data set deals with Sprague Dawley rats. Briefly: Adult rat asphyxia cardiac arrest (ACA), hippocampal CA1 cell survival counts. The format is in vivo. The following applies: 1 mg/kg or 3 mg/kg, given 5 min after ROSC. The text has this: We tested the therapeutic efficacy of NSC74429 in a model of brain injury (ACA) in which the blood brain barrier (BBB) remains intact. Male ˜300 g Sprague Dawley rats were anesthetized on isoflurane (4% induction/2% maintenance on 50% O2/50% N2) and mechanically ventilated. The left femoral artery and vein were accessed and cannulated with heparinized-saline filled PE-50 tubing. EKG, mean arterial pressure (MAP), rectal temperature, and pectoralis temperature were continuously monitored. Body temperature was maintained to 37° C. Arterial blood gas measurements were analyzed and ventilator settings adjusted as needed to achieve normal PaO2 and PaCO2. 2 mg/kg cisatracurium was administered 5 min prior to CA to stop spontaneous breathing (i.e. neuromuscular blockage). The ventilator was disconnected. Mean arterial pressure (MAP) decreased over 2-3 min until reaching target no-flow (<10 mmHG). […] Data were analyzed by 1-Way-ANOVA and Newman-Keuls Multiple Comparison Test. […] The technician that administered drug injections, and the technician that analyzed histology, were blinded to treatment group. A single value in the vehicle-injury group (indicated by a * in the table above) was a statistical outlier as determined by the Dixon's test and was removed from statistical analysis. […]

The subject of data set [6] is pAKT473. In words: pAKT473 levels in vivo, injured hippocampus after ACA. The following applies: rat ACA, 1 or 3 mg/kg, iv 5 min after ROSC and ip 24 h post-injury, tissue 1 h after final injection. The method, then:
A separate cohort of rats was used to generate hippocampal tissue homogenates. Rats were given ACA and subsequently treated with (a) vehicle, (b) 1 mg/kg NSC74429, or (c) 3 mg/kg NSC74429. Treatments were administered by iv bolus injection 5 min after ROSC, and a 2nd ip bolus injection 24 h post-injury. Shams were administered vehicle injections and preparatory surgery but were not injured. Rats were euthanized 1 h following the final drug injection and brain tissue collected for protein analysis. […] Data were analyzed by 1-Way-ANOVA and Newman-Keuls Multiple Comparison Test. Injured rats were randomized to treatment group, and drugs provided to a technician in de-identified coded vials. The technician that administered drug injections was blinded to treatment group. Graphs show Mean+SEM. Data are significant at p<0.05.

The next data set relates to C57BL/6 mice. Briefly: Adult mouse controlled cortical impact plus hemorrhagic shock (CCI+HS), CA1/CA3 cell counts. The format is in vivo. The text has this:
Traumatic brain injury (TBI) compromises the BBB, making it easier for drugs to reach injured tissue, and TBI is also worsened by secondary injuries such as hypotension due to profound blood loss (HS). Adult male ˜28 g C57BL/6 mice were anesthetized with isoflurane via a nose cone (4% induction/2% maintenance on 70% N2O/30% O2), given preparatory surgery, and sequentially injured by (1) a CCI-TBI and (2) HS, as reported by our group (Jackson et al., 2015). In brief, mice were given a moderate CCI above the left parietal cortex (impact tip velocity 5 m/s and cortical depth 1.0 mm). 5 min later, HS was initiated by withdrawing blood until mean arterial pressure (MAP) decreased from ˜90 mmHG (normal) to ˜25-27 mmHG (hypotensive). HS was maintained for 35 min. Mice were then volume resuscitated using lactated ringer's (LR) solution for 90 min to mimic pre-hospital care (targeted MAP of ˜70 mmHG). Finally, shed blood was returned over 15 min to mimic definitive hospital care and MAP returned to normal. (A-D) In a first study we measured the acute neuroprotective effects of NSC74429 on hippocampal injury 48 h after CCI+HS. Mice were given an intravenous bolus injection of vehicle (5% DMSO in D5W) or NSC74429 (1 mg/kg or 3 mg/kg) immediately after the hospital phase (i.e. […] after the initial CCI-injury). A second intraperitoneal injection was administered 24 h later, and brains collected for CA1/CA3 cell counts 48 h post-injury. One animal died in the vehicle-injury group and four animals died in the 3 mg/kg NSC74429 group prior to tissue collection. (A and B) Scatter plots show CA1/CA3 cell counts in surviving animals. 1 mg/kg NSC74429 was neuroprotective. Hippocampal survival bifurcated in the 3 mg/kg high-dose group; some animals had improved CA1/CA3 survival vs. vehicle-injury whereas others were clearly made worse. Given that mortality was also higher with 3 mg/kg NSC74429 (4 vs. 1), we eliminated the high-dose group from further statistical analysis. (C and D) Statistical analysis of CA1/CA3 cell counts. […] (E and F) A second study was done to test if NSC74429 neuroprotection is sustained chronically by 7 d post-injury. Only the low dose (1 mg/kg) was tested. Mice were injured as described above, given intravenous injection of vehicle or 1 mg/kg drug immediately following the hospital phase of HS, supplemental injections administered intraperitoneally at 24 h, 48 h, and 72 h post-injury, and brains collected for histology 7 d post-injury. […] Data were analyzed by 1-Way-ANOVA and Newman-Keuls Multiple Comparison Test. Graphs show Mean+SEM. Data are significant at p<0.05. Injured rats were randomized to treatment group, and drugs provided to a technician in de-identified coded vials. The technician that administered drug injections, and the technician that analyzed histology, were blinded to treatment group. Conclusion: NSC74429 is neuroprotective in the acute and chronic phase after injury in a severe trauma model.

Another data set relates to PHLPP2. The following applies: reported by Sierecki and colleagues; read-out: IC50 to block PHLPP2; cited from earlier work.
Where [7] appears, read: 1 mg/kg iv then ip at 24 h, 48 h post-injury.

Turning to `COc1cc(NCCC2CCCCN2)c2ncccc2c1` (stereo not shown) [NSC13378], the “neuroprotection, cell viability after STS injury” value (shortened to “neuroprotection, cell viability”) in data set [1] (viability 24 h later (DIV10)) is “failed to protect”.
Regarding `Nc1c(S(=O)(=O)O)cc(Nc2cccc(S(N)(=O)=O)c2)c2c1C(=O)c1ccccc1C2=O` [NSC117079], in the data set with pAKT473 [2], the pAKT473 levels entry is given as “dose-dependently increase pAKT473 levels”.
As to `CN(C)CCOC(=O)c1ccc(N)cc1` [NSC25247], in [1] (50 μM, viability 24 h later), the “neuroprotection, cell viability” value was “mildly neuroprotective”.
As to `S=C(Nc1ccc2cn[nH]c2c1)Nc1ccc2cn[nH]c2c1` [NSC74429], in data set [1] (25-50 μM, viability 24 h later), the “neuroprotection, cell viability” value is on record as “potently neuroprotective”. Also, the glutamate-induced neuronal death result in [3] (25 μM) is listed as “insufficient to decrease glutamate-induced neuronal death”. Moreover, in data set [3] (50 μM), the “glutamate-induced neuronal death (excitotoxic injury)” value is reported as “reduced excitotoxic injury”. Moreover, the “cell death induced by oxidative stress” value in data set [4] was “decreases cell death”. Further, in the data set with pAKT473 [5] (uninjured neurons), the “pmTOR2448 (other phosphorylated proteins)” value is reported as “did not affect”. Further, the pAKT473 levels result with pAKT473 [5] (uninjured neurons after 2 h supplement starvation) is “dose-dependently decreased pAKT473 levels”. The “hippocampal CA1 cell survival (neuroprotection)” value with Sprague Dawley rats is “neuroprotective”. The “pAKT473 levels in the injured hippocampus” value with pAKT473 [6] is listed as “did not increase pAKT473 levels”. Besides, in the data set with C57BL/6 mice (1 mg/kg iv then ip at 24, 48, 72 h, 7 d post-injury), the CA1 survival entry was “equivalent in both injured groups”. Besides, the “CA3 tissue sparing, above vehicle injury” value in the data set with C57BL/6 mice (1 mg/kg iv then ip at 24, 48, 72 h, 7 d post-injury, not statistically significant) is recorded as ~17.5%. In the data set on C57BL/6 mice (setting [7]), the CA1 cell survival result is listed as “significantly increased” and the CA3 cell survival result is “significantly increased”. The “hippocampal CA1/CA3 survival” value with C57BL/6 mice (3 mg/kg high-dose group, 48 h post-injury) is “bifurcated”. In the data set on C57BL/6 mice (3 mg/kg, vs. 1 in vehicle-injury group), the “mortality (animals died prior to tissue collection)” value worked out at 4 animals. The IC50 in the data set on PHLPP2 is 5 µM.
Turning to `Cc1cc(N=Nc2ccc(N=Nc3ccc(O)c(C(=O)[O-])c3)cc2)c(N)cc1N.[Na+]` [NSC45586], the pAKT473 levels entry in the data set on pAKT473 [2] is on record as “dose-dependently increase pAKT473 levels”.

The IC50 is the concentration that inhibits the measured activity by half.

Values taken from patent US11534425B2, “Compounds for the treatment of acute organ injury” (priority 2018, dated 2022).
